Values joined by “and” are separate entries in the source; they are usually repeats but may differ in a detail not shown here. Equal values may be shown once. Read-outs that look alike come from different tables or passages of the source.
Key:
[1] = Total plasma exposure of AZ’6421 and metabolite 8 in rat; type: in vivo; conditions: for Total plasma: rat, individual animals, analyte = label
Method: Fig. 8 Evidence of ER agonism of AZ’6421 and compound 8 in vitro and in vivo. a 100 nM compound or 10 nM estradiol (E2) were incubated with Ishikawa cells for 48 h and lysates measured for PR expression by western blot. b Normalised rat uterine weight shown as % change from respective vehicle control after 4 days dosing. c Representative H&E stained images taken from sections of uterine horn after 4 days of dosing. d Total plasma exposure of AZ’6421 and its metabolite 8 following dosing of 100 mg/kg BID or 30 mg/kg BID AZ’6421. Plasma samples were taken 4 hr after the 4th dose, at the same time as the uterus was weighed and sectioned for H&E staining.
(§1) Each plasma sample ([…]) was prepared using an appropriate dilution factor, and compared against an 11-point standard calibration curve (1-10000 nM) prepared in DMSO and spiked into blank plasma. Acetonitrile ([…]) was added with the internal standard, followed by centrifugation at 3000 rpm for 10 minutes. The supernatant ([…]) was then diluted in […] acetonitrile:water (75:25) and analyzed via UPLC-MS/MS.

[2] = Plasma exposure of AZ’6421 and metabolite 8 in CTC174 PDX mice (free, cover over DC90); type: in vivo, mouse
Method: Mice were randomised into groups of 5 once tumour sizes reached approximately 0.3 to 0.4 cm^3. A vehicle control or AZ’6421 1, 3, 10, 30, and 100 mg/kg were dosed orally, once daily (QD) or twice daily (BID) in 5% v/v DMSO, 20% v/v Solutol HS15 in purified water formulation. AZD9833 was dosed once daily at 100 mg/kg in 40% TEG/60% (of 12.5%) SBE-β-CD formulation. Mice were dosed for 4 days and tumours were harvested 6 hours after the last dose. Tumour tissue was split into 3 and immediately snap-frozen in liquid nitrogen for subsequent analysis. Plasma samples were also taken at the end of the study by terminal cardiac bleed under isoflurane anaesthesia to measure pharmacokinetics and ensure the expected exposure was reached during the dosing period.
as §1
The MS/MS instrument used was either a Waters XEVO® TQ-S, Waters XEVO® TQ-D, or API 4000 (AB Sciex). The ultra-mass spectrometer used for sample analysis was completed in the MRM mode (MS/MS). Reverse-phase HPLC with a C18 column was used to separate the analytes. A mobile phase of 99% water/0.1% formic acid (solvent A) and a solvent phase of 99% acetonitrile/0.1% formic acid (solvent B) was used. A generic LC gradient elution was used at a flow rate of 0.5 mL/min with 95% solvent A and 5% solvent B for 0.3 min after which the concentration of solvent B was increased to 95% over 0.9 min before restoring it back to 5% for the remaining 0.5 min. Mass spectrometer methods were optimised for each compound.

ERα = target: T1, ERα (Homo sapiens, UniProt P03372, D538G); test: CTC174 ex vivo studies, ERα by western blot; type: cell-based; conditions: for ERα % of DMSO control: CTC174 ex vivo; for remaining activity at 1 µM: read-out: ERα levels, % of control
T1 construct: from tissue; host or cells: CTC174 PDX tumours grown in female NSG mice; for the ex vivo work, single cells disaggregated from these tumours
T1 sequence (P03372 1-595 D538G): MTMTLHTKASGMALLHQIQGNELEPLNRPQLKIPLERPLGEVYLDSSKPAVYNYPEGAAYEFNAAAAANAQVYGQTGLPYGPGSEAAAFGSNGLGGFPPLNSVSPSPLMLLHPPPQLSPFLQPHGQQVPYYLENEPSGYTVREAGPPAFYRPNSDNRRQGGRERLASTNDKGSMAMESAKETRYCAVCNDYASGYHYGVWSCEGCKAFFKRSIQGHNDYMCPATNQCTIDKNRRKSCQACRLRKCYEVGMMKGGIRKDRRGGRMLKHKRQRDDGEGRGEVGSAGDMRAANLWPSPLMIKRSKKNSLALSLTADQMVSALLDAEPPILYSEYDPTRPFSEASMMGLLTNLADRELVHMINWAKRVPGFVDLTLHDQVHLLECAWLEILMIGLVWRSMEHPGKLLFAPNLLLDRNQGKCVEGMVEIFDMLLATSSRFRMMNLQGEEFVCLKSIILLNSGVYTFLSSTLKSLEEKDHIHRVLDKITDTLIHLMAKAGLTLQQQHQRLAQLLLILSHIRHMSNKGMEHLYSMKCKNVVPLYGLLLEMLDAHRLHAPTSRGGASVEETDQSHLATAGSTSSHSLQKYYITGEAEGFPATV
Method: CTC174 tumours were collected from donor mice, all fat, mouse tissue and necrotic areas removed and the resultant tumour placed in ice cold PBS and kept on ice. Using forceps, the tumour was then minced into small pieces (1-2 mm). Once minced, the tissue was colleced, placed into a gentlMACS C tube with 4.7 mL DMEM/F12 and enzymes H, R and A (Miltenyi Tumour Dissociation Kit), and run on the gentleMACS Octo Dissociator (Program 37C_h_TDK_2). After dissociation, the cell suspension was passed through a […] filter, red blood cell lysis performed using […] lysis buffer, and the resultant suspension centrifuged, resuspended in RPMI (containing 10% charcoal-stripped FCS) and 1x10^6 cell added to each well of a 6 well plate. DMSO control, AZ’3372 or AZ’6421 were added to well at a range of concentrations, left to incubate for 24 hours (37 °C, 5% CO2) and then samples prepared for western blot and ERα levels determined as described above.

[3] = Plasma protein binding (RED device), mouse plasma; type: in vitro ADME; conditions: for Mouse fup: fraction unbound in plasma; for Mouse fup, Free: fraction free
Method: Plasma protein binding was completed using a RED device. The test compound was prepared to 1 mM in 100% DMSO and further diluted in plasma to achieve a final compound concentration of 5 μM in the incubation. Phosphate buffered solution pH 7.4 (500 μL) was added to the receiver chamber of the RED device and spiked plasma (300 μL) was added to the donor chamber. The plate was covered with a gas-permeable lid and incubated for 18 h at 37 °C with 5% CO2 on an orbital shaker at 300 rpm. At the end of incubation, 50 μL of post-dialysis sample from the donor and receiver wells were aliquot into separate wells and matrix-matched with 50 μL of phosphate buffer solution pH 7.4 or blank plasma, respectively. The samples were subsequently quenched separately in 400 μL of ice-cold 100% acetonitrile. Quenched samples were shaken at 1000 rpm for 10 min and centrifuged for 30 min at 4000 rpm to pellet precipitated protein. The supernatant fraction was further diluted 1:1 with deionised water for analysis by LC MS/MS[17].

[4] = AZ'6421 dosed 30 mg/kg BID, 30 mg/kg
[5] = AZ'6421 dosed 100 mg/kg BID, 100 mg/kg

Row | Compound | Total plasma [1, 4] | Total plasma [1, 5] | cover for target engagement by plasma drug concentration ([2]; 100 mg/kg dose) | fraction converted to 8 within 2 hours ([2]; 100 mg/kg, from Fig. 6d) [%] | ERα % of DMSO control (ERα; 1 nM, 24 hours) [%] | ERα % of DMSO control (ERα; 10 nM, 24 hours) [%] | ERα % of DMSO control (ERα; 30 nM, 24 hours) [%] | ERα % of DMSO control (ERα; 100 nM, 24 hours) [%] | ERα % of DMSO control (ERα; 300 nM, 24 hours) [%] | ERα % of DMSO control (ERα; 1000 nM, 24 hours) [%] | ERα degradation (ERα; CTC174 cells ex vivo, 24 hours, 10 nM and above) | remaining activity at 1 µM (ERα) [%] | free in mouse plasma [3] [%] | Mouse fup [3] | Mouse fup, Free ([3]; mouse plasma) | level in rat plasma ([1]; after dosing AZ’6421) | free plasma concentration, fold above the compounds DC90 ([2]; AZ’6421 efficacy study) [fold] | free plasma concentration, fold higher than free AZ’6421 ([2]; steady state, AZ’6421 efficacy study) | remaining activity at 1 µM (ERα; 1000 nM, CTC174 cells ex vivo (Fig. 6f)) [%] | difference in the free levels vs AZ’6421 ([3]; mouse plasma) [fold]
1 | Cc1ncsc1-c1ccc(CNC(=O)[C@@H]2C[C@@H](O)CN2C(=O)[C@@H](NC(=O)COCCCOCCCOc2cc(F)c([C@@H]3c4[nH]c5ccccc5c4C[C@@H](C)N3CC(C)(C)F)c(F)c2)C(C)(C)C)cc1 [Compound 5] | 0.1461 µM and 0.4943 µM and 0.0995 µM | 1.2846 µM and 2.0194 µM and 0.7522 µM and 0.1020 µM and 0.0689 µM | free plasma exposure > free DC90 | 7 | 20.3 | 12.0 | 4.1 | 4.2 | 3.9 | 3.6 | approximately 90% | < 1 | 0.02 | 0.0002 (1) | 0.0002 | – | – | – | – | –
2 | C[C@@H]1Cc2c([nH]c3ccccc23)[C@@H](c2c(F)cc(OCCC(=O)O)cc2F)N1CC(C)(C)F [Compound 8] | 1.0069 µM and 2.5325 µM and 3.6803 µM and 2.8962 µM and 0.8884 µM | 7.8737 µM and 9.6410 µM and 6.9833 µM and 3.4205 µM and 4.6683 µM | – | – | – | – | – | – | – | – | – | – | 0.5 | 0.005 (1) | 0.005 | found at sizable levels in rat plasma | > 10 | ~ 10 fold | 42 | 25

Source: PMC11091220, “Metabolism-driven in vitro/in vivo disconnect of an oral ERɑ VHL-PROTAC” (Communications Biology, 2024)
